{"source": "paper PMC5820170", "about": "(Molecular cancer therapeutics, 2015)", "molecular_target": "Mammalian Ste20-like kinase 4 (MST4) (Homo sapiens, UniProt Q9P289)", "sequence (Q9P289 whole entry)": "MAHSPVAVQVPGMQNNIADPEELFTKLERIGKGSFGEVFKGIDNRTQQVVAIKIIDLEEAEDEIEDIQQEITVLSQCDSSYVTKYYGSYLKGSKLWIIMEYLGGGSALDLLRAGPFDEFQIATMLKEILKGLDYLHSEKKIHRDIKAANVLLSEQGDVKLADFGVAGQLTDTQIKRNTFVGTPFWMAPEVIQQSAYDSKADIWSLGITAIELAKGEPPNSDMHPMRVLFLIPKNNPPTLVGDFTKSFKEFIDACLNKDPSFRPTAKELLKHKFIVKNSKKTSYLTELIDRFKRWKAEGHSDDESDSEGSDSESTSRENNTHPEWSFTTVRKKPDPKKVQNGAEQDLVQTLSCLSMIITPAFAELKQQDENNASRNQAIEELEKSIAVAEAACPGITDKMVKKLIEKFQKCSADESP", "assay_type": "biochemical"}
{"compound": "CCS(=O)(=O)Nc1ccc2c(c1)/C(=C(/Nc1ccc(CN3CCCCC3)cc1)c1ccccc1)C(=O)N2", "note": "[Hesperadin]", "values": [{"measurement": "IC50", "value": "6.18 ± 2.2", "unit": "nM"}]}
